Laboratory results published in US20170232083A1, “METHODS OF DIAGNOSIS AND TREATMENT OF CELIAC DISEASE IN CHILDREN” (priority 2014, published 2017).
“And” between values parts separate entries of the source, which are not always exact repeats. Identical values can stand only once. Non-standard residues stand in square brackets, D forms with d. pGlu = O=C1CC[C@@H](C(=O)O)N1

Tested on: peripheral blood mononuclear cells obtained from children
Experiment: IFNγ ELISpot PBMC assay after oral wheat bread challenge (Examples 1-2)
Assay type: cell-based, human
Conditions: for T cell response in PBMC samples from children after gluten challenge: general increase in SFU in each child, Tables 2-5
Experimental: An oral wheat bread challenge was conducted in DQ2.5+ children and adolescents having Celiac disease. The age ranges were 3-5, 6-10 and 11-18 years of age. An ELISpot peripheral blood mononucleated cell (PBMC) assay was performed to measure the level of IFNγ released by the PBMCs after being contacted with peptide 1, peptide 2, peptide 3, or a combination thereof. The identities of peptides 1, 2, and 3 are shown below.
The values the rows starting from “Blank (SFU)” and ending at “Pept-1/2/3 (150)” are all spot forming unit (SFU) values. The values in the parentheses in the first column are the concentration of each peptide in micrograms that were added to the PBMCs (e.g., Pept-1 50=50 micrograms of Peptide 1, Pept-1/2/3 50=50 micrograms of each of Peptide 1, Peptide 2, and Peptide 3). Pept-1=Peptide 1, Pept-2=Peptide 2, Pept-3=Peptide 3, the amino acid identities of which are mentioned above. D-Gli=deamidated gliadin. WT-Gli=wild-type gliadin. D-Glut=deamidated gluten. WT-Glut=wild-type gluten.
IFNγ ELISpot responses in 9 older children (11-17 yo) and 6 younger children (3-10 yo) were stimulated by the mixture of peptides 1, 2, and 3 described in Example 1 (each peptide at a concentration of 25 ug/mL) or stimulated by deamidated gliadin (100 ug/mL) after 3-day wheat challenge (r2=0.8, p<0.0001). The ELISpot responses were similar using either the peptide mixture of the deamidated gliadin (FIG. 1).

ELQPFPQPELPYPQPQ ([pGlu]LQPFPQPELPYPQPQ-NH2) [Peptide 1]
most active peptides in gliadin for children: most active | SFU, IFNγ ELISpot (Subject B, 5.0 × 10^5 cells per well, 25 micrograms, listed as Pept-1): 4 SFU and 3 SFU | SFU, IFNγ ELISpot (Subject B, 5.0 × 10^5 cells per well, 100 micrograms, listed as Pept-1): 3 SFU and 2 SFU | SFU, IFNγ ELISpot (Subject C, 5.0 × 10^5 cells per well, 25 micrograms, listed as Pept-1): 10 SFU and 5 SFU | SFU, IFNγ ELISpot (Subject C, 5.0 × 10^5 cells per well, 50 micrograms, listed as Pept-1): 6 SFU and 5 SFU | SFU, IFNγ ELISpot (Subject D, 4.0 × 10^5 cells per well, 25 micrograms, listed as Pept-1): 28 SFU and 32 SFU | SFU, IFNγ ELISpot (Subject D, 4.0 × 10^5 cells per well, 50 micrograms, listed as Pept-1): 23 SFU and 31 SFU | SFU, IFNγ ELISpot (Subject D, 4.0 × 10^5 cells per well, 100 micrograms, listed as Pept-1): 32 SFU and 25 SFU | SFU, IFNγ ELISpot (Subject E, 5.0 × 10^5 cells per well, 25 micrograms, listed as Pept-1): 177 SFU and 139 SFU | SFU, IFNγ ELISpot (Subject E, 5.0 × 10^5 cells per well, 50 micrograms, listed as Pept-1): 160 SFU and 144 SFU | SFU, IFNγ ELISpot (Subject E, 5.0 × 10^5 cells per well, 100 micrograms, listed as Pept-1): 139 SFU and 153 SFU | SFU, IFNγ ELISpot (Subject F, 5.0 × 10^5 cells per well, 25 micrograms, listed as Pept-1): 151 SFU and 146 SFU | SFU, IFNγ ELISpot (Subject F, 5.0 × 10^5 cells per well, 50 micrograms, listed as Pept-1): 186 SFU and 147 SFU | SFU, IFNγ ELISpot (Subject F, 5.0 × 10^5 cells per well, 100 micrograms, listed as Pept-1): 166 SFU and 138 SFU | SFU, IFNγ ELISpot (Subject G, 4.0 × 10^5 cells per well, 25 micrograms, listed as Pept-1): 8 SFU and 14 SFU | SFU, IFNγ ELISpot (Subject G, 4.0 × 10^5 cells per well, 50 micrograms): 10 SFU | SFU, IFNγ ELISpot (Subject H, 3.5 × 10^5 cells per well, 25 micrograms, listed as Pept-1): 14 SFU and 13 SFU | SFU, IFNγ ELISpot (Subject H, 3.5 × 10^5 cells per well, 50 micrograms): 8 SFU | SFU, IFNγ ELISpot (Subject H, 3.5 × 10^5 cells per well, 100 micrograms, listed as Pept-1): 9 SFU and 8 SFU | SFU, IFNγ ELISpot (Subject I, 5.0 × 10^5 cells per well, 25 micrograms, listed as Pept-1): 6 SFU and 7 SFU | SFU, IFNγ ELISpot (Subject J, 5.0 × 10^5 cells per well, 25 micrograms, listed as Pept-1): 103 SFU and 109 SFU | SFU, IFNγ ELISpot (Subject J, 5.0 × 10^5 cells per well, 50 micrograms, listed as Pept-1): 107 SFU and 92 SFU | SFU, IFNγ ELISpot (Subject J, 5.0 × 10^5 cells per well, 100 micrograms, listed as Pept-1): 109 SFU and 111 SFU | SFU, IFNγ ELISpot (Subject K, 3.2 × 10^5 cells per well, 25 micrograms, listed as Pept-1): 33 SFU and 28 SFU | SFU, IFNγ ELISpot (Subject K, 3.2 × 10^5 cells per well, 50 micrograms, listed as Pept-1): 28 SFU and 20 SFU | SFU, IFNγ ELISpot (Subject K, 3.2 × 10^5 cells per well, 100 micrograms, listed as Pept-1): 24 SFU and 38 SFU | SFU, IFNγ ELISpot (Subject L, 3.5 × 10^5 cells per well, 25 micrograms, listed as Pept-1): 10 SFU and 9 SFU | SFU, IFNγ ELISpot (Subject L, 3.5 × 10^5 cells per well, 100 micrograms, listed as Pept-1): 14 SFU and 7 SFU | SFU, IFNγ ELISpot (Subject M, 2.3 × 10^5 cells per well, 25 micrograms, listed as Pept-1): 34 SFU and 18 SFU | SFU, IFNγ ELISpot (Subject M, 2.3 × 10^5 cells per well, 50 micrograms, listed as Pept-1): 32 SFU and 30 SFU | SFU, IFNγ ELISpot (Subject M, 2.3 × 10^5 cells per well, 100 micrograms, listed as Pept-1): 45 SFU and 40 SFU | SFU, IFNγ ELISpot (Subject N, 2.4 × 10^5 cells per well, 25 micrograms, listed as Pept-1): 4 SFU and 6 SFU | SFU, IFNγ ELISpot (Subject N, 2.4 × 10^5 cells per well, 100 micrograms, listed as Pept-1): 5 SFU and 3 SFU | SFU, IFNγ ELISpot (Subject P, 3.0 × 10^5 cells per well, 0.1 micrograms, listed as Pept-1): 16 SFU and 15 SFU | SFU, IFNγ ELISpot (Subject P, 3.0 × 10^5 cells per well, 0.5 micrograms, listed as Pept-1): 21 SFU and 24 SFU | SFU, IFNγ ELISpot (Subject P, 3.0 × 10^5 cells per well, 1 micrograms, listed as Pept-1): 49 SFU and 31 SFU | SFU, IFNγ ELISpot (Subject P, 3.0 × 10^5 cells per well, 2.5 micrograms, listed as Pept-1): 45 SFU | SFU, IFNγ ELISpot (Subject Q, 3.0 × 10^5 cells per well, 0.1 micrograms, listed as Pept-1): 12 SFU and 18 SFU | SFU, IFNγ ELISpot (Subject Q, 3.0 × 10^5 cells per well, 0.5 micrograms, listed as Pept-1): 34 SFU and 32 SFU | SFU, IFNγ ELISpot (Subject Q, 3.0 × 10^5 cells per well, 1 micrograms, listed as Pept-1): 45 SFU and 36 SFU | SFU, IFNγ ELISpot (Subject R, 3.0 × 10^5 cells per well, 0.1 micrograms, listed as Pept-1): 12 SFU and 16 SFU | SFU, IFNγ ELISpot (Subject R, 3.0 × 10^5 cells per well, 0.5 micrograms, listed as Pept-1): 21 SFU and 26 SFU | SFU, IFNγ ELISpot (Subject R, 3.0 × 10^5 cells per well, 1 micrograms, listed as Pept-1): 22 SFU and 21 SFU | SFU, IFNγ ELISpot (Subject S, 3.0 × 10^5 cells per well, 0.1 micrograms, listed as Pept-1): 2 SFU and 4 SFU | SFU, IFNγ ELISpot (Subject S, 3.0 × 10^5 cells per well, 0.5 micrograms, listed as Pept-1): 1 SFU and 2 SFU | SFU, IFNγ ELISpot (Subject S, 3.0 × 10^5 cells per well, 1 micrograms, listed as Pept-1): 1 SFU and 2 SFU | SFU, IFNγ ELISpot (Subject T, 3.0 × 10^5 cells per well, 0.1 micrograms, listed as Pept-1): 20 SFU and 18 SFU | SFU, IFNγ ELISpot (Subject T, 3.0 × 10^5 cells per well, 0.5 micrograms, listed as Pept-1): 34 SFU and 31 SFU | SFU, IFNγ ELISpot (Subject T, 3.0 × 10^5 cells per well, 1 micrograms, listed as Pept-1): 55 SFU and 60 SFU | SFU, IFNγ ELISpot (Subject U, 3.0 × 10^5 cells per well, 0.1 micrograms, listed as Pept-1): 6 SFU and 7 SFU | SFU, IFNγ ELISpot (Subject U, 3.0 × 10^5 cells per well, 0.5 micrograms, listed as Pept-1): 18 SFU and 20 SFU | SFU, IFNγ ELISpot (Subject U, 3.0 × 10^5 cells per well, 1 micrograms, listed as Pept-1): 33 SFU and 24 SFU | T cell response in PBMC samples from children after gluten challenge: induce a T cell response

EPEQPIPEQPQPYPQQ ([pGlu]PEQPIPEQPQPYPQQ-NH2; SMILES CC[C@H](C)[C@H](NC(=O)[C@@H]1CCCN1C(=O)[C@H](CCC(N)=O)NC(=O)[C@H](CCC(=O)O)NC(=O)[C@@H]1CCCN1C(=O)[C@@H]1CCC(=O)N1)C(=O)N1CCC[C@H]1C(=O)N[C@@H](CCC(=O)O)C(=O)N[C@@H](CCC(N)=O)C(=O)N1CCC[C@H]1C(=O)N[C@@H](CCC(N)=O)C(=O)N1CCC[C@H]1C(=O)N[C@@H](Cc1ccc(O)cc1)C(=O)N1CCC[C@H]1C(=O)N[C@@H](CCC(N)=O)C(=O)N[C@@H](CCC(N)=O)C(N)=O) [Peptide 3]
SFU, IFNγ ELISpot (Subject A, 5.0 × 10^5 cells per well, 50 micrograms): 0 SFU | SFU, IFNγ ELISpot (Subject C, 5.0 × 10^5 cells per well, 50 micrograms): 3 SFU | SFU, IFNγ ELISpot (Subject D, 4.0 × 10^5 cells per well, 25 micrograms, listed as Pept-3): 2 SFU and 4 SFU | SFU, IFNγ ELISpot (Subject D, 4.0 × 10^5 cells per well, 50 micrograms): 2 SFU | SFU, IFNγ ELISpot (Subject D, 4.0 × 10^5 cells per well, 100 micrograms, listed as Pept-3): 2 SFU and 4 SFU | SFU, IFNγ ELISpot (Subject E, 5.0 × 10^5 cells per well, 25 micrograms): 3 SFU | SFU, IFNγ ELISpot (Subject E, 5.0 × 10^5 cells per well, 50 micrograms): 6 SFU | SFU, IFNγ ELISpot (Subject E, 5.0 × 10^5 cells per well, 100 micrograms, listed as Pept-3): 3 SFU and 4 SFU | SFU, IFNγ ELISpot (Subject G, 4.0 × 10^5 cells per well, 25 micrograms): 0 SFU | SFU, IFNγ ELISpot (Subject H, 3.5 × 10^5 cells per well, 25 micrograms, listed as Pept-3): 1 SFU and 2 SFU | SFU, IFNγ ELISpot (Subject H, 3.5 × 10^5 cells per well, 50 micrograms, listed as Pept-3): 2 SFU and 4 SFU | SFU, IFNγ ELISpot (Subject I, 5.0 × 10^5 cells per well, 50 micrograms): 1 SFU | SFU, IFNγ ELISpot (Subject J, 5.0 × 10^5 cells per well, 25 micrograms, listed as Pept-3): 4 SFU and 2 SFU | SFU, IFNγ ELISpot (Subject J, 5.0 × 10^5 cells per well, 50 micrograms, listed as Pept-3): 2 SFU and 3 SFU | SFU, IFNγ ELISpot (Subject J, 5.0 × 10^5 cells per well, 100 micrograms, listed as Pept-3): 1 SFU and 2 SFU | SFU, IFNγ ELISpot (Subject K, 3.2 × 10^5 cells per well, 25 micrograms, listed as Pept-3): 2 SFU and 3 SFU | SFU, IFNγ ELISpot (Subject K, 3.2 × 10^5 cells per well, 50 micrograms, listed as Pept-3): 2 SFU and 1 SFU | SFU, IFNγ ELISpot (Subject L, 3.5 × 10^5 cells per well, 25 micrograms): 1 SFU | SFU, IFNγ ELISpot (Subject M, 2.3 × 10^5 cells per well, 25 micrograms): 0 SFU | SFU, IFNγ ELISpot (Subject M, 2.3 × 10^5 cells per well, 100 micrograms): 0 SFU | SFU, IFNγ ELISpot (Subject N, 2.4 × 10^5 cells per well, 50 micrograms, listed as Pept-3): 2 SFU and 1 SFU | SFU, IFNγ ELISpot (Subject N, 2.4 × 10^5 cells per well, 100 micrograms): 0 SFU | SFU, IFNγ ELISpot (Subject P, 3.0 × 10^5 cells per well, 50 micrograms, listed as Pept-3): 8 SFU and 6 SFU | SFU, IFNγ ELISpot (Subject Q, 3.0 × 10^5 cells per well, 50 micrograms, listed as Pept-3): 1 SFU and 2 SFU | SFU, IFNγ ELISpot (Subject R, 3.0 × 10^5 cells per well, 50 micrograms, listed as Pept-3): 12 SFU and 9 SFU | SFU, IFNγ ELISpot (Subject W, 3.0 × 10^5 cells per well, 50 micrograms): 8 SFU | SFU, IFNγ ELISpot (Subject Y, 2.29 × 10^5 cells per well, 50 micrograms): 3 SFU | T cell response in PBMC samples from children after gluten challenge: induce a T cell response
